# Assay: Human HepG2 cell viability assay in 384 well format
# Format: toxicity, cell-based
# Parameters: dose 125 nL, time 70.5 hour; concentration not given beside the values
# Details: HepG2 cells, read-out: Inhibition
structure (smiles),measurement,value
CN(CCc1ccccc1)Cc1nc(-c2cnccn2)no1,cytotoxicity at 70.5 h,-8.36%
CSc1ccccc1C(=O)C1CCCN(Cc2ccccn2)C1 (centres undefined),cytotoxicity at 70.5 h,-2.76%
Cc1nc(NCC2CC2)nc2c1COCC21CCNC1 (centres undefined),cytotoxicity at 70.5 h,5.46%
CC(C)N(C)Cc1cn2c(n1)CN(C(=O)c1ccc[nH]1)CC2,cytotoxicity at 70.5 h,-5.19%
Cn1nccc1C(=O)N1CCN(C(=O)C2CC2)[C@@H]2CS(=O)(=O)C[C@@H]21,cytotoxicity at 70.5 h,-5.45%
CC(C)SCCn1ccc2[nH]c(=O)c(C#N)cc2c1=O,cytotoxicity at 70.5 h,-8.8%
Cn1nc(CN2CCCN(C3CCCC3)CC2)c2c(Cl)cccc21,cytotoxicity at 70.5 h,-6.04%
COc1cc2c(cc1C1CC(=O)NCc3nc(N(C)C)sc31)CCC2 (centres undefined),cytotoxicity at 70.5 h,0.498%
CCn1nc(C)c(CCn2ccnc2-c2cc3n(n2)CCNC3)c1C,cytotoxicity at 70.5 h,-0.934%
CCN(CCOc1ccc(F)cc1)C(=O)c1ccncc1Cl,cytotoxicity at 70.5 h,-2.29%
COCC(O)CNC(=O)c1cc(COc2ccc3c(c2)CCCC3)on1 (centres undefined),cytotoxicity at 70.5 h,-4.42%
CC(CCN1CCC(n2cc(CCO)nn2)CC1)c1ccccc1 (centres undefined),cytotoxicity at 70.5 h,-8.84%
CCN1CC(CN(C)Cc2nc(-c3cccc(Cl)c3)oc2C)CC1=O (centres undefined),cytotoxicity at 70.5 h,-6.94%
O=C(CCc1cc(Cl)no1)N1CCN(CCn2cncn2)CC1,cytotoxicity at 70.5 h,-0.942%
COc1cccc2c1OCC(NCCCOc1cccnc1)C2 (centres undefined),cytotoxicity at 70.5 h,-5.15%
CCC(C)NC(=O)c1coc(COc2cccc(F)c2)n1 (centres undefined),cytotoxicity at 70.5 h,-3.12%
CC(=O)N1CCCC(C(=O)NCCc2nc(Cc3ccccc3)no2)C1 (centres undefined),cytotoxicity at 70.5 h,-13.3%
CSCc1noc(CNC(=O)C2CCN(C(=O)C3CC3)CC2)n1,cytotoxicity at 70.5 h,-17.4%
Cc1cc2nc(C(C)C)cc(N3CCC(O)CC3)n2n1,cytotoxicity at 70.5 h,-9.55%
COCCN(Cc1cnn(C)c1)CC1CCOC1 (centres undefined),cytotoxicity at 70.5 h,-6.85%
CCc1c(C(=O)N2CCC3(CC(=O)NC3=O)C2)csc1C (centres undefined),cytotoxicity at 70.5 h,-5.51%
CCN1CCN(C[C@@H]2CN(c3ncccc3F)C[C@@H]2CO)CC1,cytotoxicity at 70.5 h,23.4%
NS(=O)(=O)c1ccc(F)c(C(=O)NCCSc2ccccn2)c1,cytotoxicity at 70.5 h,-4.06%
COCCCC1CCN([C@@H]2c3ccccc3C3(CCNCC3)[C@H]2O)CC1,cytotoxicity at 70.5 h,-1.24%
COc1cccc(-n2cc(-c3ccnc(N[C@@H](CO)C(C)C)n3)cn2)c1,cytotoxicity at 70.5 h,13.3%
Cc1cccc2[nH]c(C3CCN(C(=O)c4cnc[nH]c4=O)CC3)nc12,cytotoxicity at 70.5 h,-1.84%
CC(C)(C)C(=O)N1CCCC1c1ccc(C(=O)N2CCOCC2)s1 (centres undefined),cytotoxicity at 70.5 h,16.2%
CCNc1ncc(C(=O)NCCNc2ccncc2C)cn1,cytotoxicity at 70.5 h,3.69%
COc1ccc(Cc2nc3c([nH]2)CC(C)(C)CNC3=O)cc1OC,cytotoxicity at 70.5 h,-8.64%
CCCc1cc(C(=O)N2CCC3(CC2)CN(CCN(C)C)C(=O)O3)no1,cytotoxicity at 70.5 h,-0.0862%
CN(C)C(=O)c1cn2cc(-c3cccc(Cl)c3)n(CC3CC3)c(=O)c2n1,cytotoxicity at 70.5 h,-5.52%
CSc1ccccc1C(=O)N(C)C1CCCN(CCc2ccccc2)C1 (centres undefined),cytotoxicity at 70.5 h,-5.22%
COC(=O)NCC(=O)N1CCCn2nc(CN3CC[C@H](F)C3)cc2C1,cytotoxicity at 70.5 h,-3.88%
O=C(N[C@H]1CN(c2nc(CO)cs2)C[C@@H]1C1CC1)C1CCCCC1,cytotoxicity at 70.5 h,-6.79%
COc1ccccc1-n1nc(-c2ccco2)n(CC(=O)NC2CC2)c1=O,cytotoxicity at 70.5 h,10.2%
Cc1cc(NCc2ccc(C#N)cc2)n2nc(C)cc2n1,cytotoxicity at 70.5 h,-4.7%
CC(C)N1CCC(C(=O)N2CCN(c3cccc(C(=O)O)c3)CC2)CC1,cytotoxicity at 70.5 h,-9.74%
O=C(c1cccnc1-c1ccoc1)N1C[C@H]2CC[C@@H]1C2,cytotoxicity at 70.5 h,-10.4%
CN1C[C@@H](n2cnc(-c3ccccc3)c2-c2ccccn2)C[C@H]1C(=O)O,cytotoxicity at 70.5 h,-10%
CN(Cc1n[nH]c2c1CCCC2)c1nc2c(c(=O)[nH]1)CCNCC2,cytotoxicity at 70.5 h,-4.95%
COc1cccc(C(C(=O)O)N2CCCN(c3ccnc(C)c3)CC2)c1 (centres undefined),cytotoxicity at 70.5 h,-7.15%
COc1ccc2nc(CNC(=O)C3CC4(CCNCC4)CN3C)[nH]c2c1 (centres undefined),cytotoxicity at 70.5 h,-20.5%
COc1cc(C)cc(OC)c1C(C(=O)O)N(C)Cc1c(C)nn(C)c1C (centres undefined),cytotoxicity at 70.5 h,-14.7%
COC(=O)c1cc(OCC2CCC2)cc(C(=O)NCC(C)(C)O)c1,cytotoxicity at 70.5 h,-4.36%
Cc1ccc2c(c1)SCC(=O)N2Cc1noc(C2CCCO2)n1 (centres undefined),cytotoxicity at 70.5 h,-11.5%
CCn1c(C)nnc1SCCn1cc(-c2nccs2)nn1,cytotoxicity at 70.5 h,-7.44%
Cc1ccc(N2CCCN(CC3CC3)C(C(C)C)C2)nn1 (centres undefined),cytotoxicity at 70.5 h,-14.3%
CC(C)(C)c1cn(C2CCN(C3CCSC3)CC2)nn1 (centres undefined),cytotoxicity at 70.5 h,-7.05%
O=C(CCN1CCCCO1)NC1CCCN(CC2CCCCC2)C1 (centres undefined),cytotoxicity at 70.5 h,-8.52%
CS(=O)(=O)NCC1(O)CCCN(C(=O)CCn2cc(Cl)cn2)CC1 (centres undefined),cytotoxicity at 70.5 h,-1.38%
Cc1nn(C)c(C)c1CN(Cc1cccn1-c1ncccn1)C(C)C,cytotoxicity at 70.5 h,3.54%
Cc1cc(C(=O)NCCC2CN(C)CCO2)c2cccc(C)c2n1 (centres undefined),cytotoxicity at 70.5 h,-11.4%
CCC(Nc1cccc(OC)c1)C(=O)NCc1ccc2c(c1)OCO2 (centres undefined),cytotoxicity at 70.5 h,-8.45%
CCc1oc(C(=O)NC(C)Cc2cnccn2)cc1CN1CCCC1 (centres undefined),cytotoxicity at 70.5 h,-14.2%
C[C@@H]1CN(C2(C(=O)N(C)C)Cc3ccccc3C2)C[C@H](C)O1,cytotoxicity at 70.5 h,13.4%
Cc1cc(C)n(C2CN(C(=O)c3cn4ccsc4n3)C2)n1,cytotoxicity at 70.5 h,2.53%
CC(=O)N1C[C@@H]2CC[C@H](C1)N(S(=O)(=O)c1ccccc1Cl)C2,cytotoxicity at 70.5 h,-14.4%
Cc1ccc(CNC(=O)c2cc(Cn3ccnc3C(C)C)[nH]n2)o1,cytotoxicity at 70.5 h,20.2%
CCN(Cc1noc(C2CCC2)n1)C(=O)c1cn2ccsc2n1,cytotoxicity at 70.5 h,14.6%
CC(Nc1ncnc2c1CCNCC2)c1nc2c(s1)CCCC2 (centres undefined),cytotoxicity at 70.5 h,-5.82%
O=C(Nc1ccc(F)c(Cl)c1)N1CCCN([C@H]2COC[C@@H]2O)CC1,cytotoxicity at 70.5 h,-14.1%
Cc1cccnc1CCNC(=O)[C@@]12CNC[C@@H]1CN(S(C)(=O)=O)C2,cytotoxicity at 70.5 h,-1.74%
CCC1CCN(CCn2cnc3c(C)csc3c2=O)CC1,cytotoxicity at 70.5 h,-6.08%
Cc1cccc2c1nc(COCC(=O)O)n2-c1cnc(N)cn1,cytotoxicity at 70.5 h,-4.53%
CCC(CC)CN1CCC(n2cc(C3CCCC3)nn2)CC1,cytotoxicity at 70.5 h,-3.87%
FC(F)(F)CCc1ccnc(NCc2csc(N3CCOCC3)n2)n1,cytotoxicity at 70.5 h,-10.4%
COc1ccc(CC2CN(C(=O)c3ocnc3C)CCO2)cc1 (centres undefined),cytotoxicity at 70.5 h,14.4%
CN(CCn1ccnc1-c1ccccn1)S(C)(=O)=O,cytotoxicity at 70.5 h,11.9%
c1ccc(Oc2nccc3occc23)c(CN2CCCCC2)c1,cytotoxicity at 70.5 h,6.4%
Cc1ccc2nc(C(=O)N3CCNC(=O)C3c3cccc(F)c3)cn2c1 (centres undefined),cytotoxicity at 70.5 h,24.1%
O=c1[nH]c(-c2ccc(F)cc2)nc2c1CCNC2,cytotoxicity at 70.5 h,-0.466%
CCNC(=O)[C@@H]1C[C@H](N)CN1Cc1ccc(-c2ccccc2C#N)o1,cytotoxicity at 70.5 h,9.56%
COCCCC1CCCCN1S(=O)(=O)c1cccc(C#N)c1 (centres undefined),cytotoxicity at 70.5 h,4.41%
COCC1(NC(=O)C(c2ccc(F)cc2)N(C)C)CCCC1 (centres undefined),cytotoxicity at 70.5 h,7.27%
CCc1cc(-c2ccnc3c2ccn3C)nc(N2CCOCC2)n1,cytotoxicity at 70.5 h,1.11%
CCN(CC)S(=O)(=O)N1C[C@@H]2CC[C@H](C1)N(Cc1cscn1)C2=O,cytotoxicity at 70.5 h,-9.09%
O=C1N(CCO)CCCC12CCN(Cc1nnc(C3CC3)o1)C2 (centres undefined),cytotoxicity at 70.5 h,0.803%
CNCCNc1ccc(-c2nc(-c3cccc(OC)c3OC)no2)cn1,cytotoxicity at 70.5 h,-2.42%
O=C(c1ccc(F)c(F)c1)N1CCC(Cn2cc(CO)nn2)CC1,cytotoxicity at 70.5 h,-3.06%
